In patent US20120029187A1, “HALOALKYLSULFONANILIDE DERIVATIVE” (Nissan Chemical Industries, Ltd., priority 2009, published 2012):

Columns and labels:
Format in all cases: in vivo
[1] = system: common chickweed; test: Test Example 4: herbicidal effect in foliage treatment; details: dose 3.2 g/a, three weeks after application
Outline: (§1)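 Seeds sown in sterilized diluvial soil under ~1.5 cm soil cover and grown 14 days in a greenhouse at 25 to 30° C. Emulsifiable concentrates diluted with water were then sprayed uniformly on foliage at predetermined doses (g/a). Herbicidal effect was scored three weeks after application on a graded evaluation scale.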

[2] = system: giant foxtail; test: as above; details: dose 3.2 g/a, three weeks after application
Outline: as §1

[3] = system: barnyardgrass; test: as above; details: dose 3.2 g/a, three weeks after application
Outline: as §1

[4] = system: redroot pigweed; test: as above; details: dose 3.2 g/a, three weeks after application
Outline: as §1

[5] = system: velvetleaf; test: as above; details: dose 3.2 g/a, three weeks after application
Outline: as §1

[6] = system: common lambsquater; test: as above; details: dose 3.2 g/a, three weeks after application
Outline: as §1

[7] = system: water foxtail; test: as above; details: dose 3.2 g/a, three weeks after application
Outline: as §1

[8] = system: large crabgrass; test: as above; details: dose 3.2 g/a, three weeks after application
Outline: as §1

[9] = system: posumbu knotweed; test: as above; details: dose 3.2 g/a, three weeks after application
Outline: as §1

[10] = system: common ragweed; test: as above; details: dose 3.2 g/a, three weeks after application
Outline: as §1

[11] = system: beadstraw; test: as above; details: dose 3.2 g/a, three weeks after application
Outline: as §1

[12] = system: Italian ryegrass; test: as above; details: dose 3.2 g/a, three weeks after application
Outline: as §1

[13] = system: barnyardgrass; test: Test Example 2: herbicidal effects during the vegetation period under submerged conditions; details: treatment during the vegetation period under submerged conditions; dose 2.52 g/a
Outline: (§2)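 Barnyardgrass, bulrush and ducksalad were co-sown in alluvial soil flooded to 4 cm and grown in a greenhouse at 25 to 30° C. At the 1- or 2-leaf stage, water-diluted emulsifiable concentrates went onto the water surface at set doses (g/a). Herbicidal effect was scored three weeks later on a graded scale.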

[14] = system: ducksalad; test: as above; details: treatment during the vegetation period under submerged conditions; dose 2.52 g/a
Outline: as §2

[15] = system: bulrush; test: as above; details: treatment during the vegetation period under submerged conditions; dose 2.52 g/a
Outline: as §2

[16] = system: common chickweed; test: Test Example 3: herbicidal effects in soil treatment; details: dose 3.2 g/a
Outline: (§3)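 Seeds were sown in sterilized diluvial soil and covered with about 1.5 cm of soil. Compounds, formulated as emulsifiable concentrates and diluted with water, were sprayed evenly over the soil surface at set doses in g/a. Herbicidal effect was scored on a rating scale three weeks later.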

[17] = system: giant foxtail; test: as above; details: dose 3.2 g/a
Outline: as §3

[18] = system: barnyardgrass; test: as above; details: dose 3.2 g/a
Outline: as §3

[19] = system: redroot pigweed; test: as above; details: dose 3.2 g/a
Outline: as §3

[20] = system: velvetleaf; test: as above; details: dose 3.2 g/a
Outline: as §3

[21] = system: common lambsquater; test: as above; details: dose 3.2 g/a
Outline: as §3

[22] = system: water foxtail; test: as above; details: dose 3.2 g/a
Outline: as §3

[23] = system: large crabgrass; test: as above; details: dose 3.2 g/a
Outline: as §3

[24] = system: posumbu knotweed; test: as above; details: dose 3.2 g/a
Outline: as §3

[25] = system: common ragweed; test: as above; details: dose 3.2 g/a
Outline: as §3

[26] = system: Italian ryegrass; test: as above; details: dose 3.2 g/a
Outline: as §3

[27] = system: transplanted rice; test: Test Example 1: preemergence treatment under submerged conditions, effect on crop; details: dose 2.52 g/a
Outline: (§4)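 Flooded-paddy preemergence assay; EC diluted with water, surface-applied at weed seeding; doses g/a; rice transplanted at 2.5 leaves; 0–5 mortality score after 3 weeks.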

[28] = system: barnyardgrass; test: Test Example 1: herbicidal effects in preemergence treatment under submerged conditions; details: dose 2.52 g/a
Outline: as §4

[29] = system: ducksalad; test: as above; details: dose 2.52 g/a
Outline: as §4

[30] = system: bulrush; test: as above; details: dose 2.52 g/a
Outline: as §4

| Compound | N: common chickweed, herbicidal effect [1] | E: giant foxtail, herbicidal effect [2] | A: barnyardgrass, herbicidal effect [3] | K: redroot pigweed, herbicidal effect [4] | I: velvetleaf, herbicidal effect [5] | L: common lambsquater, herbicidal effect [6] | G: water foxtail, herbicidal effect [7] | D: large crabgrass, herbicidal effect [8] | M: posumbu knotweed, herbicidal effect [9] | J: common ragweed, herbicidal effect [10] | O: beadstraw, herbicidal effect [11] | H: Italian ryegrass, herbicidal effect [12] | A: barnyardgrass, herbicidal effect (evaluation scale 0-5) [13] | C: ducksalad, herbicidal effect (evaluation scale 0-5) [14] | B: bulrush, herbicidal effect (evaluation scale 0-5) [15] | N: common chickweed, herbicidal effect (evaluation scale 0-5) [16] | E: giant foxtail, herbicidal effect (evaluation scale 0-5) [17] | A: barnyardgrass, herbicidal effect (evaluation scale 0-5) [18] | K: redroot pigweed, herbicidal effect (evaluation scale 0-5) [19] | I: velvetleaf, herbicidal effect (evaluation scale 0-5) [20] | other results |
| --- | --- | --- | --- | --- | --- | --- | --- | --- | --- | --- | --- | --- | --- | --- | --- | --- | --- | --- | --- | --- | --- |
| CCOC(=O)N(c1ccccc1CN1COC(C)(C(F)(F)F)CC1=O)S(=O)(=O)C(F)(F)F (stereo not drawn) [II-49] | 3 (mortality of at least 40% and less than 70%) | 3 (mortality of at least 40% and less than 70%) | 4 (mortality of at least 70% and less than 90%) | 0 (mortality of less than 5% (almost ineffective)) | 0 (mortality of less than 5% (almost ineffective)) | 3 (mortality of at least 40% and less than 70%) | 3 (mortality of at least 40% and less than 70%) | 0 (mortality of less than 5% (almost ineffective)) | 3 (mortality of at least 40% and less than 70%) | 3 (mortality of at least 40% and less than 70%) | 4 (mortality of at least 70% and less than 90%) | 0 (mortality of less than 5% (almost ineffective)) | 5 (mortality of 90% or above (nearly complete death)) | 5 (mortality of 90% or above (nearly complete death)) | 5 (mortality of 90% or above (nearly complete death)) | 4 (mortality of at least 70% and less than 90%) | 3 (mortality of at least 40% and less than 70%) | 3 (mortality of at least 40% and less than 70%) | 0 (mortality of less than 5% (almost ineffective)) | 0 (mortality of less than 5% (almost ineffective)) | L: common lambsquater, herbicidal effect (evaluation scale 0-5) [21]: 2 (mortality of at least 20% and less than 40%); G: water foxtail, herbicidal effect (evaluation scale 0-5) [22]: 5 (mortality of 90% or above (nearly complete death)); D: large crabgrass, herbicidal effect (evaluation scale 0-5) [23]: 3 (mortality of at least 40% and less than 70%); M: posumbu knotweed, herbicidal effect (evaluation scale 0-5) [24]: 4 (mortality of at least 70% and less than 90%); J: common ragweed, herbicidal effect (evaluation scale 0-5) [25]: 4 (mortality of at least 70% and less than 90%); H: Italian ryegrass, herbicidal effect (evaluation scale 0-5) [26]: 3 (mortality of at least 40% and less than 70%); a: transplanted rice, effect on crop (evaluation scale 0-5) [27]: 0 (mortality of less than 5% (almost ineffective)); A: barnyardgrass, herbicidal effect (evaluation scale 0-5) [28]: 5 (mortality of 90% or above (nearly complete death)); C: ducksalad, herbicidal effect (evaluation scale 0-5) [29]: 5 (mortality of 90% or above (nearly complete death)); B: bulrush, herbicidal effect (evaluation scale 0-5) [30]: 5 (mortality of 90% or above (nearly complete death)) |
| CC1(CC(F)(F)F)CC(=O)N(Cc2ccccc2NS(=O)(=O)C(F)(F)F)CO1 (stereo not drawn) [II-51] | 5 (mortality of 90% or above (nearly complete death)) | 4 (mortality of at least 70% and less than 90%) | 5 (mortality of 90% or above (nearly complete death)) | 0 (mortality of less than 5% (almost ineffective)) | 4 (mortality of at least 70% and less than 90%) | 3 (mortality of at least 40% and less than 70%) | 5 (mortality of 90% or above (nearly complete death)) | 4 (mortality of at least 70% and less than 90%) | 5 (mortality of 90% or above (nearly complete death)) | 3 (mortality of at least 40% and less than 70%) | 4 (mortality of at least 70% and less than 90%) | 3 (mortality of at least 40% and less than 70%) | 5 (mortality of 90% or above (nearly complete death)) | 5 (mortality of 90% or above (nearly complete death)) | 4 (mortality of at least 70% and less than 90%) | 5 (mortality of 90% or above (nearly complete death)) | 4 (mortality of at least 70% and less than 90%) | 5 (mortality of 90% or above (nearly complete death)) | 0 (mortality of less than 5% (almost ineffective)) | 5 (mortality of 90% or above (nearly complete death)) | L: common lambsquater, herbicidal effect (evaluation scale 0-5) [21]: 0 (mortality of less than 5% (almost ineffective)); G: water foxtail, herbicidal effect (evaluation scale 0-5) [22]: 5 (mortality of 90% or above (nearly complete death)); D: large crabgrass, herbicidal effect (evaluation scale 0-5) [23]: 5 (mortality of 90% or above (nearly complete death)); M: posumbu knotweed, herbicidal effect (evaluation scale 0-5) [24]: 5 (mortality of 90% or above (nearly complete death)); J: common ragweed, herbicidal effect (evaluation scale 0-5) [25]: 4 (mortality of at least 70% and less than 90%); H: Italian ryegrass, herbicidal effect (evaluation scale 0-5) [26]: 3 (mortality of at least 40% and less than 70%); a: transplanted rice, effect on crop (evaluation scale 0-5) [27]: 0 (mortality of less than 5% (almost ineffective)); A: barnyardgrass, herbicidal effect (evaluation scale 0-5) [28]: 5 (mortality of 90% or above (nearly complete death)); C: ducksalad, herbicidal effect (evaluation scale 0-5) [29]: 5 (mortality of 90% or above (nearly complete death)); B: bulrush, herbicidal effect (evaluation scale 0-5) [30]: 5 (mortality of 90% or above (nearly complete death)) |
